In patent publication US20250268855A1, “PHARMACEUTICAL AND NUTRACEUTICAL COMPOSITIONS WITH A COMBINATION OF AMINO ACIDS AND ITS USE IN DISEASES CHARACTERIZED BY LIPID ACCUMULATION IN TISSUES” (FUNDACIÓ EURECAT, priority 2022, published 2025):

What was measured:
[1] = test system: mice consumed high saturated fat diet; conditions: Mong et al.; cited from earlier work
[2] = test system: hepatocyte cell line (HepG2); test: In vitro assay of gene expression in hepatocyte cell line; format: cell-based, human; conditions: HepG2, 24 h; Histidine 10 mM, carnosine 5 mM, cysteine 5 mM, serine 5 mM; vs. control
Method: These concentrations were conserved with the different combinations. Data are expressed as mean±SEM; n=3-4 per condition. *p<0.05; **p<0.01, ***p<0.001 vs. vehicle.
An in vitro assay was also carried out using the hepatocyte cell line (HepG2) to test the effect of different combinations of the supplemented amino acids in hepatic expression of key genes of fatty acid beta-oxidation (carnitine palmitoyltransferase, Cpt1a), inflammation (chemokine (C-C motif) ligand 2, CCL2), lipolysis (hormone-sensitive, HSL; and lipin, LPIN) and lipogenesis (fatty acid synthase, FASN). Gene expression was determined by qPCR as previously indicated (see materials and methods in example 1). […] The Cpt1a enzyme is located in the outer membrane, and it is the key enzyme in the carnitine-dependent transport across the mitochondrial inner membrane. Its deficiency results in a decreased rate of fatty acid beta-oxidation.
Data are depicted in FIG. 7, wherein the level of expression (mRNA) is indicated for any of the supplemented media. […]

Structure (SMILES) | body weight [1] | epididymal fat [1] | hepatic cholesterol levels [1] | hepatic triglyceride levels [1] | hyper-insulinemia [1] | insulin sensitivity [1] | Cpt1a mRNA expression (the cited enzyme) [2]
N[C@@H](Cc1c[nH]cn1)C(=O)O [histidine] | lowered | lowered | lowered | lowered | attenuated | improved | –
NCCC(=O)N[C@@H](Cc1cnc[nH]1)C(=O)O [carnosine] | lowered | lowered | lowered | lowered | attenuated | improved | trend to reduce the effect
